This note sets out measurements from patent US20050249675A1, “Mucin synthesis inhibitors” (priority 2003, published 2005).

pIC50: −log10 of the molar value.

Series [1] relates to MUC5A/C secretion in hCLCA1 expressing H292 cells. Briefly: MUC5A/C secretion by ELLA in hCLCA1 expressing H292 cells. It is filed as cell-based, human. Details: key to ELLA: (+) = inhibition; (−) = no inhibition. To be noted: Table 2.
For series [2], the system named is H292 clone 15 cells. The experiment in a line: ELLA for MUC5AC, H292 clone 15 cells (Example 11). The format is cell-based, human. To be noted: MUC5AC in conditioned media; 48 hours; average of 3 experiments. How it is done: ELLA (Enzyme-Linked Lectin Assay) was used to determine the inhibitory effect of compounds on mucus production by H292 clone 15 cells. H292 clone 15 cells, a subclone from human pulmonary mucoepidermoid carcinoma cells overexpressing hCLCA1, were grown to confluent, followed by incubation with increasing concentrations of compounds for 48 hours. Conditioned media were collected and MUC5AC (the major secretory mucin in lungs) content was determined by ELLA measurement as described below. 96 well microtiter plates were coated with a mouse monoclonal antibody against human MUC5AC (1-13M1, NeoMarkers), then incubated with test conditioned media. Bound MUC5AC was detected by horseradish peroxidase-conjugated soybean lectin that has a high affinity towards highly-glycosylated proteins such as MUC5AC. Conversion of peroxidase substrate TMB (Tetramethylbenzidine Base) was quantified by reading at 450 nm. O.D. (optical density) readings were plotted against concentrations of compounds. Linear regression was used to derive the concentration at which O.D. was reduced by 50% (IC50) when compared to vehicle-treated cells.

For another series, the system named is Muc5b. The experiment in a line: Inhibition of Muc5b expression. It is filed as cell-based. Set-up: key: (+) = inhibition; (−) = no inhibition. To be noted: Table 2. As to the method:
The effects of talniflumate derivatives on mucin production were also assayed for changes in ELLA and IC50 (Table 2) as described in the methods above.

Series [3] relates to H292 clone 15 cells. Briefly: Alamar Blue cytotoxicity. Particulars: H292 clone 15 cells; 48 hours; average of 3 experiments. For orientation: The colour change of resazurin is a common sign of viable cells or microbes.

Usually pIC50 stands for −log10 of the IC50, conventionally taken in molar units. With `O=C1OC(CC(=O)c2cccnc2Nc2cccc(C(F)(F)F)c2)c2ccccc21` (centres unmarked) [4 (MSI 2216)], the pIC50 in series [1] (ELLA, read-out: IC50) is 5.30; with H292 clone 15 cells [2], 5.52. In addition, the ELLA entry in series [1] (mucin production) is on record as “+”. Further, the “Inhibition of Muc5b Expression” value in the series with Muc5b is recorded as “+”. In addition, the “Est. LD50 (Alamar Blue)” value in the series on H292 clone 15 cells [3] was 32 µM.
